{
  "source": "ChEMBL document CHEMBL1201862",
  "about": "“PubChem BioAssay data set” (2004)",
  "key": {"[1]": {"experiment": "viability loss in human Jurkat cells – cell-based, luminescence, cytotoxicity control for P. falciparum gametocyte viability project, dose response (AID 1117277);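 further: potency reflects loss of cellular ATP meaning fewer viable cells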", "assay_type": "functional"}, "[2]": {"experiment": "viability inhibitors of stage V gametocytes – luminescence, dose response (AID 1117278);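 further: gametocytes exposed to compound for 24 hours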", "assay_type": "functional, cell-based"}, "[3]": {"molecular_target": "T1, E3 ubiquitin-protein ligase XIAP (Homo sapiens, UniProt P98170)", "T1 sequence (P98170 whole entry)": "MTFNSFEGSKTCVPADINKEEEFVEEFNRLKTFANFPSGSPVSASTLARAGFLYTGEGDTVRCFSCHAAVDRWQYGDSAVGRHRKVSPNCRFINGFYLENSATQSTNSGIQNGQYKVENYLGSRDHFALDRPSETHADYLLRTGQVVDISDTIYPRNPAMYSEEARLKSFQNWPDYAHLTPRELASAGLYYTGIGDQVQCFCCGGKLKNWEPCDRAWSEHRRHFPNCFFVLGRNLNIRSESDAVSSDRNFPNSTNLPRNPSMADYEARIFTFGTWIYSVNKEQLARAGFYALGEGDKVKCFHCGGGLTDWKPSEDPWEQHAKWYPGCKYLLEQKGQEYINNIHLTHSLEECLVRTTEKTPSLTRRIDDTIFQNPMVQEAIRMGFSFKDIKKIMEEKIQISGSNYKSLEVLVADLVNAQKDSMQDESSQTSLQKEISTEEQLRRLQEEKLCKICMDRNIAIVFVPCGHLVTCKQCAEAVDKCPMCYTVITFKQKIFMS", "experiment": "Counter Screen using XIAP-Bir3 for Chemical Antagonists of Bir1/2 domains of IAP-family anti-apoptotic proteins. [Related pubchem assays (depositor defined):AID1018, AID1449, AID1514, AID1638, AID1749, AID1750, AID488957, AID488963]"}, "[4]": {"molecular_target": "T1, E3 ubiquitin-protein ligase XIAP", "experiment": "small molecules displacing peptide from XIAP – biochemical, IAP family, fluorescence polarization (AID 1018)", "assay_type": "functional"}, "Paired box protein Pax-8": {"molecular_target": "Paired box protein Pax-8 (Homo sapiens, UniProt Q06710)", "sequence (Q06710 whole entry)": "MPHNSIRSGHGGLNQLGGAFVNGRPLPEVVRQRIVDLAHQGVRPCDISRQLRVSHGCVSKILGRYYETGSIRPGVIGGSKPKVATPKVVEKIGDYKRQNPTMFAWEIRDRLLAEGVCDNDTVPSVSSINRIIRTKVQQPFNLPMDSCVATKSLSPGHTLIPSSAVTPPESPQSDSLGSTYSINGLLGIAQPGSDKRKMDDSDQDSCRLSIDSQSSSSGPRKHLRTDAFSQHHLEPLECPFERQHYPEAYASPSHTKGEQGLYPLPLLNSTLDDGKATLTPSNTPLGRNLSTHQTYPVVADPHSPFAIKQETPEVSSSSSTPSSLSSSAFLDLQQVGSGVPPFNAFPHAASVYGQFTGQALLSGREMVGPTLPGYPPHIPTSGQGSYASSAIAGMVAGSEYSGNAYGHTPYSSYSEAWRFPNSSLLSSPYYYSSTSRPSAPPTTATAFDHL", "experiment": "PAX8 transcriptional activity inhibition in RMG-I – RMG-I cells, luciferase, cherry-pick, dose response (AID 687027);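 further: luciferase reporter driven by Pax8 target thyroperoxidase promoter measured by SteadyGlo luminescence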", "assay_type": "functional, cell-based"}, "[5]": {"experiment": "viability loss in THP-1 monocytes – THP-1 cells, cytotoxicity control for Vif-APOBEC3G degradation inhibitor project, dose response (AID 1117359)", "assay_type": "functional", "settings": "THP-1"}, "HEK293": {"system": "HEK293", "experiment": "EBV LMP1 TES2 canonical NF-kB signalling blockers – cell-based, HEK293, luciferase, cherry-pick, dose response (AID 588343)", "assay_type": "functional", "settings": "Homo sapiens"}, "[6]": {"experiment": "HIV-1 AD8 envelope cell-cell fusion blockers – cherry-pick, dose response (AID 652062);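 further: luciferase signal from cell-cell fusion driven by HIV-1 clade B AD8 Env; potency is for inhibitors of fusion seen as a drop in luminescence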", "assay_type": "functional, cell-based"}, "[7]": {"experiment": "blockers of HIV-1 ZM109 envelope-driven cell-cell fusion – HeLa effector, CEM target cells, luciferase, cherry-pick, dose response (AID 652058);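 further: luciferase signal from HIV-1 Env mediated cell-cell fusion of effector and target cells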", "assay_type": "functional, cell-based"}, "[8]": {"experiment": "toxicity to human HepG2 hepatoma cells – cell-based, plate reader, dry powder samples, cytotoxicity control, dose response (AID 1159569);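 further: inhibitor potency with signal falling toward the positive control level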", "assay_type": "functional"}, "[9]": {"experiment": "Dd2 malaria parasite growth inhibition potency – SYBR Green, dry powder samples, dose response (AID 1159566);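 further: potency for growth inhibition with lower SYBR green DNA signal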", "assay_type": "functional, cell-based"}, "[10]": {"experiment": "P. falciparum Dd2 growth inhibitors, dose response, SYBR Green, cherry-picked samples (AID 1159567)", "assay_type": "functional, cell-based"}, "[11]": {"experiment": "growth inhibition of yeast DHODH-expressing 3D7 parasites – SYBR Green, dry powder samples, dose response (AID 1159570);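 further: parasite growth measured after 72 hours of compound exposure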", "assay_type": "functional, cell-based"}, "[12]": {"experiment": "growth inhibition of PfATP4-mutant resistant parasites – NITD609-resistant line, SYBR Green, dry powder, dose response (AID 1159571);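 further: parasites synchronized at ring stage by sorbitol before testing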", "assay_type": "functional, cell-based"}, "Estrogen receptor beta": {"molecular_target": "Estrogen receptor beta (Homo sapiens, UniProt Q92731)", "sequence (Q92731 whole entry)": "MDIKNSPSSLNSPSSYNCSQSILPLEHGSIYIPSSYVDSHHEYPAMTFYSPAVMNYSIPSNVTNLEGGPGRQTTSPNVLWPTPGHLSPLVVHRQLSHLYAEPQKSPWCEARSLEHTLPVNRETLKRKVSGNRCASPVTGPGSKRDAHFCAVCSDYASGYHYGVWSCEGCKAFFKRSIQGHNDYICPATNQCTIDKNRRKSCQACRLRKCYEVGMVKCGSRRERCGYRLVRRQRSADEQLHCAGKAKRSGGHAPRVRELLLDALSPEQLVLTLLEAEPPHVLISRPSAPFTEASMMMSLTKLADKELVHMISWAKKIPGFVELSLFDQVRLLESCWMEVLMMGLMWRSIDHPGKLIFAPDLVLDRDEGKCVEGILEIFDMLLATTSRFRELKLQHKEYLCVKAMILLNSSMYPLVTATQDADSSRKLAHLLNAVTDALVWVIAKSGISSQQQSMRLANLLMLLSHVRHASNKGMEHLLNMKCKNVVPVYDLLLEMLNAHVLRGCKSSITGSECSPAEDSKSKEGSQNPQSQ", "experiment": "blockers of SRC-3 recruitment to ERβ – biochemical, ELISA, streptavidin-HRP readout, orthogonal assay, confirmation (AID 1060)"}, "[13]": {"molecular_target": "Protein-tyrosine kinase 2-beta (Homo sapiens, UniProt Q14289)", "sequence (Q14289 whole entry)": "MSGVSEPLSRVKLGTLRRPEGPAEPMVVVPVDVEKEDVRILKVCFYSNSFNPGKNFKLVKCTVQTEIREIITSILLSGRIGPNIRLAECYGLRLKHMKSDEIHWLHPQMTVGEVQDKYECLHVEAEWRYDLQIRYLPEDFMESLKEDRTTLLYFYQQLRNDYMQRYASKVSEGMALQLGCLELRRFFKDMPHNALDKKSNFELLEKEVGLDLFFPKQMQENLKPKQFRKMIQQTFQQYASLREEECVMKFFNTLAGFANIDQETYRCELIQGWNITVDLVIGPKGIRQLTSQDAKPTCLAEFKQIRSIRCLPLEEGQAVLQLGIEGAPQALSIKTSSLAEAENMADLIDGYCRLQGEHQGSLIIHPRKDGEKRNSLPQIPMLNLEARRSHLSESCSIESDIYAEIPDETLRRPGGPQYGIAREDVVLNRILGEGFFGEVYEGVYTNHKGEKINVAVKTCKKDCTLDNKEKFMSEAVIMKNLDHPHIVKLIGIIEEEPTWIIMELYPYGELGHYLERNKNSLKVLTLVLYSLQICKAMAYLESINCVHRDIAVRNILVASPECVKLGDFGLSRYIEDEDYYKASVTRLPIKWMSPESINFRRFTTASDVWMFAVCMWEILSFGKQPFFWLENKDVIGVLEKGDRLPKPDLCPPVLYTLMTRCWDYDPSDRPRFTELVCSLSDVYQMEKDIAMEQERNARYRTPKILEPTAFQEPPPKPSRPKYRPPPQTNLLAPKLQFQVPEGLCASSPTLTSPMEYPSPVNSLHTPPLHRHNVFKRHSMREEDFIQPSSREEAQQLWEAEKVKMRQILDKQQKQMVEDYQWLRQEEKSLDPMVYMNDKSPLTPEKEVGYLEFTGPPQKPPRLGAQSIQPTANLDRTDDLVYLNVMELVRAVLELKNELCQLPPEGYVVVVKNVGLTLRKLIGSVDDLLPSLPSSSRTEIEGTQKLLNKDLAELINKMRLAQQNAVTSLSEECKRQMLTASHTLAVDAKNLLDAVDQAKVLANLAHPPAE"}},
  "note": "Active and inactive are the calls of the source.",
  "data": [
    {"smiles": "Nc1nc(NC(=O)c2ccccc2)nn1-c1ccccc1", "values": [
      {"measurement": "IC50", "setting": "[1]", "value": "> 83.3 µM (inactive)"},
      {"measurement": "IC50", "setting": "[2]", "value": "> 109 µM (inactive)"}
    ]},
    {"smiles": "CN(Cc1ccccc1)C(=O)c1ccc2c(c1)NC(=O)C(N1CCOCC1)S2", "note": "(stereo not given)", "values": [
      {"measurement": "IC50", "setting": "[3]", "value": "> 100 µM (inactive)"},
      {"measurement": "IC50", "setting": "[4]", "value": "> 100 µM (not active)"}
    ]},
    {"smiles": "Cc1cc(NC(=O)COC(=O)c2cccc(O)c2)no1", "values": [
      {"measurement": "IC50", "setting": "[1]", "value": "> 83.2 µM (inactive)"},
      {"measurement": "IC50", "setting": "[2]", "value": "> 109 µM (inactive)"}
    ]},
    {"smiles": "C=C1C(=O)C2=CC1CCC(=O)C1(C)CCC(OC(C)=O)C(C)(C)C1CC2O", "note": "(stereo not given)", "values": [
      {"measurement": "AC50", "setting": "Paired box protein Pax-8", "value": "1.43 µM (active)"},
      {"measurement": "CC50", "setting": "[5]", "value": "4.83 µM (active)"},
      {"measurement": "AC50", "setting": "HEK293", "value": "5.72 µM (active)"}
    ]},
    {"smiles": "O=C(Nc1ccc(Br)cn1)C1CCN(S(=O)(=O)c2cccs2)CC1", "values": [
      {"measurement": "CC50", "setting": "[5]", "value": "> 40 µM (active)"}
    ]},
    {"smiles": "N#Cc1cccc(Oc2ccc(S(=O)(=O)N3CCCC3)cn2)c1", "values": [
      {"measurement": "CC50", "setting": "[5]", "value": "> 40 µM (active)"}
    ]},
    {"smiles": "C[C@@H]1CCCCO[C@H](CN(C)C)[C@H](C)CN([C@@H](C)CO)C(=O)c2cc(NS(=O)(=O)c3cn(C)cn3)ccc2O1", "values": [
      {"measurement": "AC50", "setting": "[6]", "value": "2.6 µM (active)"},
      {"measurement": "AC50", "setting": "[7]", "value": "1.36 µM (active)"}
    ]},
    {"smiles": "CNC[C@@H]1Oc2cc(C#Cc3cccnc3)ccc2S(=O)(=O)N([C@H](C)CO)C[C@H]1C", "values": [
      {"measurement": "AC50", "setting": "[8]", "value": "93.8 µM (active)"},
      {"measurement": "AC50", "setting": "[9]", "value": "1.02 µM (active)"},
      {"measurement": "AC50", "setting": "[10]", "value": "1.61 µM (active)"},
      {"measurement": "AC50", "setting": "[11]", "value": "2.13 µM (active)"},
      {"measurement": "AC50", "setting": "[12]", "value": "0.984 µM (active)"}
    ]},
    {"smiles": "CN(C)CC(=O)N1C[C@@H]2N[C@H](C1)[C@@H]2c1ccc(/C=C/c2ccccc2)cc1", "values": [
      {"measurement": "AC50", "setting": "[8]", "value": "23.2 µM (active)"},
      {"measurement": "AC50", "setting": "[9]", "value": "1.94 µM (active)"},
      {"measurement": "AC50", "setting": "[10]", "value": "2.01 µM (active)"},
      {"measurement": "AC50", "setting": "[11]", "value": "4.57 µM (active)"},
      {"measurement": "AC50", "setting": "[12]", "value": "4.64 µM (active)"}
    ]},
    {"smiles": "C[C@H](CO)N1C[C@H](C)[C@H](CN(C)C(=O)Cc2ccncc2)Oc2cc(C#CC3CCCC3)ccc2S1(=O)=O", "values": [
      {"measurement": "AC50", "setting": "[8]", "value": "97 µM (active)"},
      {"measurement": "AC50", "setting": "[9]", "value": "2.28 µM (active)"},
      {"measurement": "AC50", "setting": "[10]", "value": "2.13 µM (active)"},
      {"measurement": "AC50", "setting": "[11]", "value": "4.97 µM (active)"},
      {"measurement": "AC50", "setting": "[12]", "value": "4.96 µM (active)"}
    ]},
    {"smiles": "C[C@H]1CN([C@@H](C)CO)C(=O)c2cc(C#Cc3cccc(F)c3)cnc2O[C@@H]1CN(C)C(=O)C1CCCCC1", "values": [
      {"measurement": "AC50", "setting": "[8]", "value": "22.1 µM (active)"},
      {"measurement": "AC50", "setting": "[9]", "value": "0.495 µM (active)"},
      {"measurement": "AC50", "setting": "[10]", "value": "0.686 µM (active)"},
      {"measurement": "AC50", "setting": "[11]", "value": "1.37 µM (active)"},
      {"measurement": "AC50", "setting": "[12]", "value": "0.742 µM (active)"}
    ]},
    {"smiles": "CN(C)CCN1CCc2ccccc21", "values": [
      {"measurement": "IC50", "setting": "Estrogen receptor beta", "value": "0.0579 µM (not active)"},
      {"measurement": "IC50", "setting": "[13]", "value": "6.46 µM (active)"}
    ]}
  ]
}
